Source: US6737383B1, “Herbicidal oxadiazolidines” (priority 1999, dated 2004)

Tests used:
[1] = test system: bedstraw; experiment: Test B pre/postemergence bedstraw; assay type: in vivo, Galium aparine
Outline: (§1)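 Response is a visual 0-to-10 score relative to untreated plants, where 0 means no effect and 10 means complete control, taken twelve to sixteen days after application. Treatments went onto soil at planting and onto foliage of 1- to 4-leaf plants, using a surfactant-containing non-phytotoxic solvent.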

[2] = test system: surinam grass; experiment: Test B pre/postemergence surinam grass; assay type: in vivo, Brachiaria decumbens
Outline: as §1

[3] = test system: wild oat; experiment: Test B pre/postemergence wild oat; assay type: in vivo, Avena fatua; conditions: for Wild oats plant response rating: scale of 0 to 10 where 0 is no effect and 10 is complete control
Outline: as §1

[4] = test system: bamyardgrass; experiment: Test B flood test barnyardgrass; assay type: in vivo, Echinochloa crus-galli
Outline: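 Each value is a visual injury score relative to controls, with 10 meaning complete control and 0 no effect. Evaluation took place twelve to sixteen days after the 2-leaf-stage plants were treated and kept in the greenhouse.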

[5] = Postemergence, Rate 125 g/ha, scale 0 to 10, 0 is no effect, 10 is complete control
[6] = Preemergence, Rate 62 g/ha, scale 0 to 10 (0 no effect, 10 complete control)
[7] = Preemergence, Rate 250 g/ha, scale of 0 to 10 where 0 is no effect and 10 is complete control
[8] = Preemergence, Rate 500 g/ha, scale of 0 to 10 where 0 is no effect and 10 is complete control
[9] = Rate 62 g/ha, Postemergence, scale of 0 to 10 where 0 is no effect and 10 is complete control
[10] = Rate 250 g/ha, Postemergence, scale of 0 to 10 where 0 is no effect and 10 is complete control
[11] = Rate 500 g/ha, Postemergence, scale 0 to 10, 0 no effect, 10 complete control
[12] = Postemergence (flood test), Rate 125 g/ha, scale 0 to 10, 0 is no effect, 10 is complete control
[13] = Rate 62 g/ha, Postemergence (flood test species), scale of 0 to 10 where 0 is no effect and 10 is complete control
[14] = Rate 250 g/ha, Postemergence (flood test species), scale of 0 to 10 where 0 is no effect and 10 is complete control
[15] = Rate 500 g/ha, listed under Postemergence (flood test species), scale 0 to 10, 0 no effect, 10 complete control
[16] = Postemergence, Rate 250 g/ha, scale 0 to 10, 0 is no effect, 10 is complete control

SMILES | Plant response rating, Bedstraw [1, 5] | Plant response rating, Bedstraw [1, 6] | Bedstraw plant response rating (0 to 10 scale) ([1]; Preemergence, Rate 125 g/ha) | Bedstraw plant response rating [1, 7] | Bedstraw plant response rating [1, 9] | Plant response rating, Bedstraw [1, 11] | Plant response rating, B. signalgrass [2, 5] | Plant response rating, B. signalgrass [2, 6] | B. signalgrass plant response rating (0 to 10 scale, 0 is no effect, 10 is complete control) ([2]; Preemergence, Rate 125 g/ha) | B. signalgrass plant response rating [2, 7] | B. signalgrass plant response rating [2, 8] | B. signalgrass plant response rating [2, 9] | Plant response rating, B. signalgrass [2, 11] | Plant response rating, Wild oats [3, 5] | Plant response rating, Wild oats [3, 6] | Wild oats plant response rating (0 to 10 scale) ([3]; Preemergence, Rate 125 g/ha) | Wild oats plant response rating ([3]; Preemergence, Rate 250 g/ha) | Wild oats plant response rating ([3]; Preemergence, Rate 500 g/ha) | Wild oats plant response rating ([3]; Rate 62 g/ha, Postemergence) | Plant response rating, Wild oats [3, 11] | also measured
CC(C)N(C(=O)n1oc(=O)n(C2CCCO2)c1=O)c1ccc(F)cc1 (stereo not shown) [Compound 345] | 0 | 0 | 0 | 0 | 0 | 0 | 0 | 0 | 0 | 0 | 0 | 0 | 0 | 0 | 0 | 0 | 0 | 0 | 0 | 0 | Bedstraw plant response rating [1, 8]: 0; Plant response rating, Bedstraw [1, 10]: 0; Plant response rating, B. signalgrass [2, 10]: 0; Plant response rating, Barnyardgrass [4, 12]: 0; Barnyardgrass plant response rating [4, 13]: 0; Plant response rating, Barnyardgrass [4, 14]: 0; Plant response rating, Barnyardgrass [4, 15]: 0
Cc1cccc(C(C)(C)C)c1-n1c(=O)on(C(=O)N(c2ccc(F)cc2)C(C)C)c1=O [Compound 359] | 0 | 0 | 0 | 0 | 0 | 0 | 0 | 0 | 0 | 0 | 0 | 0 | 0 | 0 | 0 | 0 | 0 | 0 | 0 | 0 | Bedstraw plant response rating [1, 8]: 0; Plant response rating, Bedstraw [1, 10]: 0; Plant response rating, B. signalgrass [2, 10]: 0; Plant response rating, Barnyardgrass [4, 12]: 0; Barnyardgrass plant response rating [4, 13]: 0; Plant response rating, Barnyardgrass [4, 14]: 0; Plant response rating, Barnyardgrass [4, 15]: 0
CCN(CC)C(=O)n1oc(=O)n(-c2ccccc2C)c1=O [Compound 364] | 0 | 0 | 0 | 0 | 0 | 0 | 0 | 0 | 0 | 0 | 3 | 0 | 1 | 0 | 0 | 0 | 0 | 3 | 0 | 0 | Plant response rating, Bedstraw [1, 16]: 0; Bedstraw plant response rating [1, 8]: 3; Plant response rating, B. signalgrass [2, 16]: 0; Plant response rating, Wild oats [3, 16]: 0; Plant response rating, Barnyardgrass [4, 12]: 0; Barnyardgrass plant response rating [4, 13]: 0; Plant response rating, Barnyardgrass [4, 15]: 0; Plant response rating, Barnyardgrass ([4]; flood test species, listed under Postemergence, Rate 250 g/ha, scale 0 to 10, 0 is no effect, 10 is complete control): 0
CCOc1nc(C(F)(F)F)c(Cn2c(=O)on(C(=O)N(c3ccccc3)C(C)C)c2=O)s1 [Compound 379] | 0 | 0 | 0 | 0 | 0 | 0 | 0 | 0 | 0 | 0 | 0 | 0 | 0 | 0 | 0 | 0 | 0 | 0 | 0 | 0 | Plant response rating, Bedstraw [1, 16]: 0; Plant response rating, B. signalgrass [2, 16]: 0; Plant response rating, Wild oats [3, 16]: 0; Plant response rating, Barnyardgrass (0 to 10 scale, 0 is no effect, 10 is complete control) ([4]; Rate 62 g/ha, flood test species, Pre-emergence, visual evaluation after twelve to sixteen days): 0; Barnyardgrass plant response rating (0 to 10 scale, 0 is no effect, 10 is complete control) ([4]; Rate 125 g/ha, under heading Pre-emergence, flood test species, visual evaluation after twelve to sixteen days): 0; Barnyardgrass plant response rating ([4]; Rate 250 g/ha, Pre-emergence, flood-test species, scale 0 to 10, 0 is no effect, 10 is complete control): 0; Barnyardgrass plant response rating ([4]; Rate 500 g/ha, Pre-emergence, flood test species, scale 0 to 10 (0 no effect, 10 complete control)): 0
